Assay results: patent publication US7628987B2, “Vectors derived from antibodies for transferring substances into cells” (Institut Pasteur, priority 1997, dated 2009)
Several values for one entry are separate records, joined by “and”; a condition that tells them apart may be missing. Equal entries are not always repeated. No end group written: not given here.

Assays:
[1] = system: HSV-1 TK^+ virus; assay: microbe, parasite or virus in culture; type: cell-based, Herpes Virus Simplex type I
[2] = system: HSV-1 TK^− virus; assay: microbe, parasite or virus in culture; type: cell-based, Herpes Virus Simplex type I; settings: for inhibition of the CPE effect, in words: HSV-1 TK^−; for CPE inhibition (AI): HSV1 TK^−
[3] = system: Vero cells; assay: Toxicity reference: non infected treated Vero cells (Neutral Red OD); type: cell-based, monkey
Protocol: The CPE inhibition test is a semi-quantitative test which measures the % survival of the cells. The following protocol was followed: Vero cells were trypsinised (trypsin-versene, Eurobio), distributed in flat bottomed 96-well plates (Falcon) in an amount of […] per well, in 50 μl of DMEM medium (Bioproducts) supplemented with antibiotics, L-glutamine and 5% FCS (Eurobio), then incubated for 24 hours. The peptide/antibodies, sterilised on a […] filter, were added in an amount of […] using the following schedule: • H−24: cells into culture; • H−0: infection; • H−2, H−1, H0, H+1: add peptides; • H+48: CPE test.
48 hours after infection, the medium was removed and the wells were washed 3 times with 200 μl of sterile PBS buffer containing Ca^2+ and Mg^2+, so as to eliminate dead cells. Neutral Red (RAL, 0.3%) was added (100 μl/well) and the cells were incubated for 2 more hours. The cells were then washed 3 times as described above to eliminate colorant which had not been incorporated into the cells. The cells were then exploded by adding 100 μl of 1% SDS in distilled water. After 1 hour at 4° C. to completely leach out the Neutral Red, the crystals were dissolved with a pipette. Air bubbles were destroyed by a current of hot air (hair dryer) and the plates were read, using a microplate reader at 570 nm using a 630 nm reference filter. The optical density blank was air.
The following controls were used: • Reference cells: non infected and non treated, incubated with Neutral Red; • Reference virus: infected cells with different dilutions of a factor of 2 of virus, from 100% CPE (dilution 1/1) to 12.5% CPE (1/8 dilution); • Antiviral reference: cells treated with acyclovir and infected; and • Toxicity reference: non infected cells, treated with different peptides/antibodies.

[4] = system: CCL39 cells; type: cell-based, hamster; settings: CCL39, complete medium, no auxiliary agent
Protocol: CCL39 cells (hamster fibroblasts) (5×10^4 cells) were placed in 24 well culture plates for 18 hours before transfection in MEM+10% FCS (foetal calf serum) culture medium. Transfections were carried out in MEM+10% FCS with no other auxiliary agent (CHLOROQUINE). The peptide-PL and free polylysine PL (corresponding to 19 lysines) were complexed with the pCMVLUC plasmid (respectively 24 μg and 70 μg per 6 μg of plasmid) for 30 minutes. The complex was then added dropwise to the CCL39. After incubating for 5 hours, the medium was replaced with fresh medium. Luciferase expression was assayed 24 hours later. The cells were washed twice with PBS. After washing, the cells were lysed with 100 μl of lyse buffer (PROMEGA) for 10-15 minutes. The cells were then centrifuged for 7 minutes at 4° C. to remove cellular debris. 20 μl of this lysate was mixed with 100 μl of luciferase buffer (PROMEGA). The relative luciferase units (RLU) were recorded on a LUMAT LB9501 (BERTHOLD). The protein concentration was determined using a BIORAD PROTEIN ASSAY-1 kit and the amount of luciferase in each sample was normalised per mg of protein, each transfection being carried out three times.

[5] = system: PV1/Mahoney; type: cell-based, polio virus type 1; settings: peptide 25 μg/ml, day 5
[6] = system: PV1/Sabin; type: cell-based, polio virus type 1; settings: for LOG (TITER/ML) / TITER REDUCTION FACTOR: PV1/Sabin, peptide 25 μg/ml, day 5
[7] = system: CMV Ad169 strain; assay: Inhibition of cytomegalovirus (CMV) replication (morphology, plaque counting, Western blot); type: cell-based
[8] = system: 3T3 cells
[9] = system: cells in culture; assay: Cell penetration of polypeptide-streptavidin vectors coupled to enzymes; settings: 2 hours of culture, complete culture medium
[10] = system: PtK2 fibroblasts; assay: Study of the penetration of biotinylated polypeptides into cells (peroxidase coloration); type: cell-based; settings: after 1 hour of culture, biotinylated polypeptide 5-20 μg/ml
Protocol: Cultured PtK2 fibroblasts seeded the day before in an amount of 5×10^4 cells per well onto glass sheets, are incubated at 37° C., 1-18 hours in complete RPMI 1640 culture medium (or DMEM) (10% foetal calf serum, 2 mM L-glutamine and 1 mM of sodium pyruvate) containing a biotinylated polypeptide of the invention (5-20 μg/ml) The cells were then washed with PBS and fixed with 2% of p-formaldehyde at 4° C. for 10 minutes then washed with PBS. The cells were then incubated with a solution of streptavidin conjugated with 5 μg/ml of peroxidase in PBS for 30 minutes, then washed with PBS and incubated in the peroxidase cytochemical substrate (diaminobenzidine+H2O2). After washing, the cells were examined microscopically.

[11] = Human alphaherpesvirus 1, Vero, read-out: CPE inhibition (antiviral activity)
[12] = Day 1, cells pretreated with 25 μg/ml
[13] = Day 4, cells pretreated with 25 μg/ml
[14] = HSV1 TK^+, added H + 1, 5 μ/well
[15] = HSV1 TK^+, added H + 1, 10 μ/well
[16] = HSV1 TK^+, added H + 1, 20 μ/well
[17] = HSV1 TK^+, added H − 1, 5 μ/well
[18] = HSV1 TK^+, added H − 1, 10 μ/well
[19] = HSV1 TK^+, added H − 1, 20 μ/well
[20] = HSV1 TK^+, added H − 2, 5 μ/well
[21] = HSV1 TK^+, added H − 2, 10 μ/well
[22] = HSV1 TK^+, added H − 2, 20 μ/well

Nc1nc2c(ncn2COCCO)c(=O)[nH]1 [ACYCLOVIR ®, Acyclovir, reference compound]
inhibition at 1000 µM ([1]; Human alphaherpesvirus 1, Vero, 10^−3 M, HSV1 TK^+, read-out: CPE inhibition (antiviral activity)): 62%
inhibition at 100 µM ([1]; Human alphaherpesvirus 1, Vero, 10^−4 M, HSV1 TK^+, read-out: CPE inhibition (antiviral activity)): 49%
inhibition at 10 µM ([1]; Human alphaherpesvirus 1, Vero, 10^−5 M, HSV1 TK^+, read-out: CPE inhibition (antiviral activity)): 7%
inhibition at 1 µM ([1]; Human alphaherpesvirus 1, Vero, 10^−6 M, HSV1 TK^+, read-out: CPE inhibition (antiviral activity)): 9%
inhibition of the CPE effect, in words [2]: no effect
inhibition at 1 µM [2, 11]: 0%
inhibition at 10 µM [2, 11]: 0%
inhibition at 100 µM [2, 11]: 0%
inhibition at 1000 µM [2, 11]: 0%
optical density, non infected cells ([3]; 10^−3 M /0, column HSV1 TK^+): 0.909 ± 0.016
optical density, non infected cells ([3]; 10^−3 M /0, column HSV1 TK^−): 0.789 ± 0.160
optical density, non infected cells ([3]; 10^−4 M /0, column HSV1 TK^+): 1.027 ± 0.042
optical density, non infected cells ([3]; 10^−4 M /0, column HSV1 TK^−): 0.834 ± 0.086
optical density, non infected cells ([3]; 10^−5 M /0, column HSV1 TK^+): 0.975 ± 0.093
optical density, non infected cells ([3]; 10^−5 M /0, column HSV1 TK^−): 0.869 ± 0.053
optical density, non infected cells ([3]; 10^−6 M /0, column HSV1 TK^+): 0.960 ± 0.025
optical density, non infected cells ([3]; 10^−6 M /0, column HSV1 TK^−): 0.816 ± 0.001

KKKKKKKKKKKKKKKKKKKVAYISRGGVSTYYSDTVKGRFTRQKYNKRA [K19pF4-1]
transfection efficacy relative to polylysine alone [4]: about 1000 times
transfection efficacy (luciferase) ([4]; 24 μg peptide per 6 μg pCMVLUC, 5 h incubation): 2×10^6 RLU/mg of proteins
LOG (TITER/ML) [5]: 8.75
TITER REDUCTION FACTOR [5]: 8
inhibiting effect on type 1 polio virus replication [6]: more than 30 factor
LOG (TITER/ML) [6]: 8
TITER REDUCTION FACTOR [6]: 32
inhibition of infection of cells by CMV [7]: ~100%
NUMBER OF PLAQUES FORMED, Mean [7, 12]: 100.0
NUMBER OF PLAQUES FORMED, individual determinations [7, 12]: 100 and 125 and 75
% reduct'n of plaques formed [7, 13]: 99.5%
NUMBER OF PLAQUES FORMED, Mean [7, 13]: 166.7
NUMBER OF PLAQUES FORMED, individual determinations [7, 13]: 0 and 250 (2×)
action on CMV proteins (Western blot) ([7]; added to cells after viral adsorption): had no action
inhibition of virus replication ([7]; cells treated before, and at the same time, as viral infection): 99.5%
cytopathogenic effects (morphology) ([7]; treated at the end of / after viral adsorption): large
appearance of CMV proteins (Western blot) ([7]; treated at the same time as viral infection): no appearance of late proteins was noted
cytopathogenic effects (morphology) ([7]; treated before or at the same time as the viral infection): displayed no morphological modifications
appearance of CMV proteins (Western blot) ([7]; treated before viral infection): the appearance of neither early proteins nor late proteins of the CMV was noted
CPE inhibition (AI) ([1]; HSV1 TK^+, added H0, 5 μ/well): 13
CPE inhibition (AI) ([1]; HSV1 TK^+, added H0, 10 μ/well): 30
CPE inhibition (AI) ([1]; HSV1 TK^+, added H0, 20 μ/well): 28
CPE inhibition (AI) [1, 14]: 10
CPE inhibition (AI) [1, 15]: 12
CPE inhibition (AI) [1, 16]: 10
CPE inhibition (AI) [1, 17]: 13
CPE inhibition (AI) [1, 18]: 30
CPE inhibition (AI) [1, 19]: 28
CPE inhibition (AI) [1, 20]: 1
CPE inhibition (AI) [1, 21]: 2
CPE inhibition (AI) [1, 22]: 7
CPE inhibition (AI) ([2]; added H0, 5 μ/well): 15
CPE inhibition (AI) ([2]; added H0, 10 μ/well): 25
CPE inhibition (AI) ([2]; added H0, 20 μ/well): 42
CPE inhibition (AI) ([2]; added H + 1, 5 μ/well): 1
CPE inhibition (AI) ([2]; added H + 1, 10 μ/well): 13
CPE inhibition (AI) ([2]; added H + 1, 20 μ/well): 1
CPE inhibition (AI) ([2]; added H − 1, 5 μ/well): 25
CPE inhibition (AI) ([2]; added H − 1, 10 μ/well): 7
CPE inhibition (AI) ([2]; added H − 1, 20 μ/well): 47
CPE inhibition (AI) ([2]; added H − 2, 5 μ/well): 21
CPE inhibition (AI) ([2]; added H − 2, 10 μ/well): 5
CPE inhibition (AI) ([2]; added H − 2, 20 μ/well): 25
toxicity of the polyplex [8]: did not induce any toxicity
increase of transfection after 24 h with respect to 5 h30 ([8]; 3T3, charge ratio R 4.4): about 1.3 factor
luciferase activity ([8]; 3T3, charge ratio R 4.4, incubating for 5 h30): 2-3×10^7 RLU/mg of protein

(K)19-VAYISRGGGIFYYQDSIKGRFTREKYGKRGMDY (KKKKKKKKKKKKKKKKKKKVAYISRGGGIFYYQDSIKGRFTREKYGKRGMDY) [K19pJ20-8]
LOG (TITER/ML) [5]: 8.9
TITER REDUCTION FACTOR [5]: 6
LOG (TITER/ML) [6]: 8.6
TITER REDUCTION FACTOR [6]: 8
CPE inhibition (AI) ([1]; HSV1 TK^+, added H0, 5 μ/well): 37
CPE inhibition (AI) ([1]; HSV1 TK^+, added H0, 10 μ/well): 71
CPE inhibition (AI) ([1]; HSV1 TK^+, added H0, 20 μ/well): 86
CPE inhibition (AI) [1, 14]: 0
CPE inhibition (AI) [1, 15]: 1
CPE inhibition (AI) [1, 16]: 0
CPE inhibition (AI) [1, 17]: 27
CPE inhibition (AI) [1, 18]: 74
CPE inhibition (AI) [1, 19]: 89
CPE inhibition (AI) [1, 20]: 1
CPE inhibition (AI) [1, 21]: 44
CPE inhibition (AI) [1, 22]: 78
inhibition of the CPE effect, in words ([1]; HSV-1 TK^+): very active against the two viral strains
CPE inhibition (AI) ([2]; added H0, 5 μ/well): 38
CPE inhibition (AI) ([2]; added H0, 10 μ/well): 56
CPE inhibition (AI) ([2]; added H0, 20 μ/well): 86
CPE inhibition (AI) ([2]; added H + 1, 5 μ/well): 1
CPE inhibition (AI) ([2]; added H + 1, 10 μ/well): 3
CPE inhibition (AI) ([2]; added H + 1, 20 μ/well): 11
CPE inhibition (AI) ([2]; added H − 1, 5 μ/well): 29
CPE inhibition (AI) ([2]; added H − 1, 10 μ/well): 49
CPE inhibition (AI) ([2]; added H − 1, 20 μ/well): 100
CPE inhibition (AI) ([2]; added H − 2, 5 μ/well): 55
CPE inhibition (AI) ([2]; added H − 2, 10 μ/well): 46
CPE inhibition (AI) ([2]; added H − 2, 20 μ/well): 0
inhibition of the CPE effect, in words [2]: very active against the two viral strains

streptavidin: control protein in native form
intracellular detection of the coupled enzymes [9]: no intracellular coloration was observed

(K)19-AISRGGGYSYYLDTVKRTARATWDWFAY (KKKKKKKKKKKKKKKKKKKAISRGGGYSYYLDTVKRTARATWDWFAY) [K19PC2.1]
LOG (TITER/ML) [5]: 9.05
TITER REDUCTION FACTOR [5]: 4
LOG (TITER/ML) [6]: 8.6
TITER REDUCTION FACTOR [6]: 8
CPE inhibition (AI) ([1]; HSV1 TK^+, added H0, 5 μ/well): 69
CPE inhibition (AI) [1, 14]: 37
CPE inhibition (AI) [1, 17]: 8
CPE inhibition (AI) [1, 20]: 1
CPE inhibition (AI) ([2]; added H0, 5 μ/well): 81
CPE inhibition (AI) ([2]; added H0, 10 μ/well): 92
CPE inhibition (AI) ([2]; added H + 1, 5 μ/well): 26
CPE inhibition (AI) ([2]; added H − 1, 5 μ/well): 72
CPE inhibition (AI) ([2]; added H − 2, 5 μ/well): 100

VAYISRGGVSTYYSDTVKGRFTRQKYNKRA [pF4.1]
penetration into cells (peroxidase coloration) [10]: penetrated massively and rapidly into the cells
